Assay [1] relates to ATM. The assay can be described thus: ATM activation: phospho-ATM (S1981) ELISA on the nuclear fraction of MCF7 cells. Format: cell-based, Human. The following applies: 1 μM, time course of 6 hours. As for the experimental part:
Several assays were utilized to determine the ability of the compounds of the invention to activate ATM over a period of time. […] The fold change in phospho-ATM was measured over a period of time. Accordingly, the increase in phospho-ATM indicates activation of ATM by the compounds of the invention.
In certain examples, the activity of the compounds of the invention was compared to additional modulators of ATM, such as […] (a specific ATM inhibitor); dimethylsulfoxide (DMSO) (a solvent); 3,3′-diindolylmethane (DIM) (an ATM activator); and irradiation (irradiation may result in the generation of phospho-ATM due to DNA damage). DIM was not used as a comparative compound in Example 5.
Materials: MCF7 Cells; Complete RPMI media: RPMI, 10% Fetal Bovine Serum (FBS), 5% L-glutamine, 5% Pen/Strep; R&D Systems Human P-ATM (S1981) DuoSet IC ELISA Assay Kit; Plate sealers; Normal mouse serum (heat inactivated 56 C for 30 min); 96-well ELISA microtiter plate; 450 nm Plate Reader; 60 mm dishes; Disposable pipettes; Pipet-aid; Pipette tips; Micro-pipetter; Cell scraper; Distilled water; Pierce NE-PER Nuclear and Cytoplasmic Extraction Reagent; Pierce Protease and Phosphotase Inhibitor Mini Tablets; KU-55933; DIM (not used in Example 5); Dimethyl sulfoxide (DMSO); Phosphate buffered saline (PBS); and Sterile micro-tubes and conical tubes; Hemocytometer; Microscope; Micro-centrifuge.
MCF7 Cells were grown in Complete RPMI media and 10^6 cells were seeded into 60 mm dishes. Dishes were then divided into duplicate treatments the following day. Control samples were treated with 3 ml RPMI media for 1 hr. Vehicle samples were treated with 3 ml RPMI media plus 0.1% DMSO for 1 hr. Negative control samples were treated with 10 μM KU-55933 in 3 ml RPMI media plus 0.1% DMSO for 1 Hr. Positive control samples were treated with 0.5 μM DIM in 3 ml RPMI media plus 0.1% DMSO for 30 min. Test Samples were treated with 1 μM of the test compounds (e.g. N-(6-(hydroxyamino)-6-oxohexyl)-1H-indole-2-carboxamide in Example 5) in 3 ml RPMI media plus 0.1% DMSO for 30 min; 1 hr; 2 hrs; 4 hrs; and 6 hrs. At their designated time, samples were harvested on ice using a cell scraper and two washes of 1 ml PBS and kept as a cell pellet on dry ice until all were collected. After all samples were collected they were thawed on ice and separated into cytosolic and nuclear fractions using the Pierce NE-PER Nuclear and Cytoplasmic Extraction Reagent kit with added Pierce protease and phosphotase inhibitor tablet.
After recovery of the separate fractions, the process further included washing cells by suspending the cell pellet with PBS. 1-10×10^6 cells were transferred to a 1.5 mL microcentrifuge tube and a pellet was formed by centrifugation at 500×g for 2-3 minutes. […]
(ELISA stands for enzyme-linked immunosorbent assay.)

Assay [2] deals with pan-HDACs. The assay can be described thus: Pan-HDAC assay (Fluor-de-Lys fluorometric kit, HeLa Nuclear Extract). It counts as biochemical. The conditions noted are these: values are average EC50, read-out: EC50 against pan-HDACs. As for the experimental part:
Certain compounds of the invention were tested in a pan-HDAC assay to determine the ability of such compounds to inhibit HDAC protein. Specifically, the compounds tested included: N-(6-(hydroxyamino)-6-oxohexyl)-3-methyl-1H-indole-2-carboxamide (SP-1-161) (FIG. 8A); N^1-hydroxy-N^6-(2-(2-methyl-1H-indol-3-yl)ethyl)octanediamide (SP-1-163) (FIG. 8A); (S)—N-(6-(hydroxyamino)-6-oxohexyl)-1-tosylindoline-2-carboxamide (SP-1-169) (FIG. 8B); and (S)-1-((5-(dimethylamino)naphthalene-1-yl)sulfonyl)-N-(6-(hydroxyamino)-6-oxoheyl)indoline-carboxamide (SP-1-171) (FIG. 8B).
The Pan HDAC assay was performed as follows:
Materials: Enzo Fluor-de-Lys HDAC fluorometric activity assay kit; 360 nm excitation 460 nm emission Plate Reader; Disposable pipettes; Pipet-aid; Pipette tips; Micro-pipetter; DMSO; Sterile micro-tubes and conical tubes; and Micro-centrifuge.
Test compounds and control preparation: All test compounds' stock solutions were made in 100% DMSO. Test compound dilutions were made in HDAC Assay buffer with a final concentration of DMSO less than or equal to 1%. Vehicle control was HDAC Assay buffer with 1% DMSO.
The reagents for the assay were prepared as follows:
1. All kit components were defrosted and these, and all dilutions described below, were kept on ice until use. All undiluted kit components are stable for several hours on ice.
2. A sufficient amount of HeLa Nuclear Extract (BML-KI140) or other HDAC source diluted in Assay Buffer (BML-KI143) was prepared to provide for the assays that were performed (# of wells×15 μl). A 30-fold dilution of the HeLa Extract means that 15 μl contains 0.5 μl of the undiluted Extract, an appropriate amount to use per well.
3. Dilution(s) of Trichostatin A and/or Test Inhibitors were prepared in Assay Buffer (BML-KI143). Since 10 μl were used per well, and since the final volume of the HDAC reaction was 50 μl, these inhibitor dilutions were 5× their final concentration.
4. Dilution(s) of the Fluor de Lys® Substrate (BML-KI104; 50 mM) were prepared in Assay Buffer (BML-KI143) that were 2× the desired final concentration(s). For inhibitor screening, substrate concentrations at or below the Km are recommended. Twenty-five μL were used per well. Initial dilutions of 25-fold or greater in Assay Buffer (2.0 mM or less) yielded stable solutions (see NOTE on freezing and thawing below). Rapid mixing and dilution into room temperature buffer helped to prevent precipitation at high substrate concentration. NOTE: Freezing/thawing of Fluor de Lys® Substrate solutions in Assay Buffer may cause precipitation of the Substrate. Dilute only amount necessary for one day's experiment.
5. Shortly before use (<30 min.), sufficient Fluor de Lys® Developer was prepared for the assays to be performed (50 μl per well). […]

As for `Cc1[nH]c2ccccc2c1C` [2,3-dimethyl indole, reference compound], the results for the “ATM activation (level of ATM phosphorylation, phospho-ATM)” value in assay [1] and in assay [1] (listed as 2,3-dimethylindole) were “significant increase in ATM phosphorylation” and “significant increase in ATM activation”, respectively.

By EC50 is commonly meant the concentration that produces a half-maximal response. As for `Cc1[nH]c2ccccc2c1CCNC(=O)CCCCCCC(=O)NO` [SP-1-163, N^1-hydroxy-N^6-(2-(2-methyl-1H-indol-3-yl)ethyl)octanediamide], the EC50 in assay [2] stood at 112 nM. Further, the “ATM activation (level of ATM phosphorylation, phospho-ATM)” value in assay [1] is “exemplary ATM activation activity”.

`Cc1ccc(S(=O)(=O)N2c3ccccc3C[C@H]2C(=O)NCCCCCC(=O)NO)cc1` [SP-1-169, (S)—N-(6-(hydroxyamino)-6-oxohexyl)-1-tosylindoline-2-carboxamide]: the EC50 in assay [2] worked out at 265 nM.

Regarding `CN(C)c1cccc2c(S(=O)(=O)N3c4ccccc4C[C@H]3C(=O)NCCCCCC(=O)NO)cccc12` [SP-1-171, (S)-1-((5-(dimethylamino)naphthalene-1-yl)sulfonyl)-N-(6-(hydroxyamino)-6-oxoheyl)indoline-carboxamide], in assay [2], the EC50 worked out at 25.3 nM.

The values are drawn from US10745352B2, “Dual function molecules for histone deacetylase inhibition and ataxia telangiectasia mutated activation and methods of use thereof” (Shuttle Pharmaceuticals, Inc., priority 2015, dated 2020).
